Here are results for 4 molecules from patent US20230406849A1, “KRAS INHIBITORS FOR TREATMENT OF CANCERS” (TYLIGAND BIOSCIENCE (SHANGHAI) LIMITED, priority 2020, published 2023).

For data set [1], the system named is human non-small cell lung cancer NCI-H358 xenograft. As to the kind of experiment: Antitumor activity in NCI-H358 xenograft mouse model. The data set is classed as in vivo, NPSG mice. The note with it: for TGI(%) / Tumor volume (mm^3) (day 14): NPSG mice, gavage once daily 10 mg/kg, day 14. How it is done:
Tumor growth inhibitory activity of the compounds of the present disclosure was evaluated and verified in a human non-small cell lung cancer NCI-H358 xenograft mouse model.
[Test materials]: NCI-H358 cell line carrying KRAS G12C mutation, provided by KYinno Biotechnology Co., Ltd. (from ATCC, Cat #CRL-5807). NPSG mice, female, provided by Beijing Phenotek Biotechnologies Inc.
[Experimental procedure]: 5×10^6 NCI-H358 cells (containing 50% Matrigel) were inoculated subcutaneously on the right flank of 6-8 weeks old female NPSG mice, with the inoculation volume of 0.1 mL. When the average tumor size reached 160-220 mm^3, the mice were grouped randomly according to tumor size and body weight, upon which the mice were treated with compounds on the same day designated as Day 0. The mice were gavage administrated once daily at 10 mg/kg or solvent control (50 mM citrate buffer containing 10% cyclodextrin, pH5.0). Tumor volume and body weight were measured twice a week during the study. The tumor volume was calculated by the formula V=D×d×d/2, wherein D and d refer to the long and short diameter of the tumor respectively.
In addition, using the same materials and procedures as above, the tumor inhibition activity of Example 9 at different doses in the above-mentioned non-small cell lung cancer mouse model and its effect on body weight were also investigated.

Data set [2] is described as follows: Cassette pharmacokinetic experiment in rats (IV). The data set is classed as in vivo. To be noted: rat, plasma, 1 mg/kg, male SD rats, tail vein IV, 1 mg/mL each compound at 1 mL/kg. An excerpt: 2.1 Pharmacokinetic Properties of Some Compounds of the Present Disclosure Evaluated by Cassette Pharmacokinetic Experiments in Rats.
[Test materials]: Male SD rats, age: 6-8 weeks, body weight 220-250 g, purchased from Zhaoyan (Suzhou) New Drug Research Center Co., Ltd.; Tolbutamide (Aladdin, Cat #H1401054); Sulfobutyl-(Captisol, Shandong Binzhou Zhiyuan Biological Technology Co., Ltd, Cat #20191013); Propylene glycol (15)-stearate (Solutol, Meilun Bio, Cat #50206A); DMSO (Vetec Company, Cat #WXBD0293V); acetonitrile (Sigma-Aldrich, Cat #WXBD1744V); Methanol (Sigma-Aldrich, Cat #WXBD2831V).
[Experimental procedure]: The compound combination was prepared in a solvent of 5% DMSO/10% Solutol/85% (20% Captisol), and the final concentration of each compound was 1 mg/mL. The SD rats were treated with the compound preparation in 1 mL/kg by tail vein IV injection, and blood samples were collected at the time points of 5 min, 15 min, 30 min, 1 h, 2 h, 4 h, 8 h, and 24 h via external jugular vein puncture, centrifuged at low temperature for 20 minutes to collect plasma samples, which were stored at −80° C. until analysis.
[Sample analysis]: Establishing LC-MS/MS compound analysis method
Standard curve preparation: 20 μL of lmg/mL DMSO stock solution for each compound was aspirated and transferred to […] of 50% methanol working solution, and the resulting solution was serially diluted to obtain a standard curve working solution with concentrations of 20000, 10000, 5000, 1000, 500, 100, 50, 20 and […]. Then 5 µL of this standard curve working solution was mixed with 45 μL rat blank plasma to give a standard curve with concentrations of 2000, 1000, 500, 100, 50, 10, 2 and 1 ng/mL for quantification of unknown samples.
Sample pretreatment: 50 μL of unknown plasma sample or standard curve sample was mixed with 250 μL of acetonitrile containing internal standard as a precipitant. The plasma protein was precipitated, extracted for test compounds, and centrifuged at low temperature for 20 minutes. The supernatant was taken, mixed with 0.1% formic acid aqueous solution, and 5 μL of the resulting solution was aspirated for blood concentration analysis.
[Data processing]: A standard curve was plotted using mass spectrometry software, to quantify unknown samples, and pharmacokinetic parameters are calculated by Winnonlin 8.2 using the drug concentration of unknown samples at each time point.

In data set [3] the test system is human non-small cell lung cancer cells NCI-H358 with KRas G12C mutation. Description: NCI-H358 cell proliferation, CellTiter-Glo Luminescent Cell Viability Assay. The data set is classed as cell-based. To be noted: for inhibition at 1 µM: 1 μM compound, read-out: Inhibition rate % (1 μM). An excerpt:
This assay verified the inhibitory activity of the compounds of the present disclosure on the proliferation of human non-small cell lung cancer cells NCI-H358 with KRas G12C mutation by using Promega's CellTiter-Glo® Luminescent Cell Viability Assay kit.
[Test materials]: NCI-H358 cell line (Cell Resource Center, IBMS, CAMS/PUMC, Item number: 3111C0001CCC000470), 96-well transparent flat-bottomed black-walled cell culture plate (Greiner Bio one, Cat #655096), RPMI-1640 Medium (GE, Cat #SH30809.01), Fetal Bovine Serum FBS (Thermo Fisher, Cat #10099-141), CellTiter-Glo® Luminescent Cell Viability Assay Kit (Promega, Cat #G7573), PBS (Solarbio, Cat #P1020), Trypsin (Thermo Fisher, Cat #25200072), DMSO (Sigma, Cat #D2650), Methyl cellulose (SIGMA, Cat #9004-67-5).
[Experimental procedure]: 180 μL of cell suspension (RPMI1640 solution with 10% FBS and 1% methyl cellulose) was charged to a 96-well cell culture plate at a density of 1500 cells/well. A control group containing no cells, no compounds and only 3D complete medium (RPMI 1640 solution with 1! Methyl cellulose and 10% FBS) (i.e. culture medium control) and a control group containing no compounds but cells (i.e. cell control) were set. AMG510 or the following reference compounds were used as positive controls. The cell plate was placed in a cell incubator overnight. A 10-fold drug solution (RPMI1640 solution with 10% FBS and 1% DMSO) was prepared at a concentration of 10 μM, and 20 μL of this solution was added to each well of the 96-well plate seeded with cells, so that the final concentration of the compounds in each well was 1 μM, and the DMSO concentration […] replicate wells were set up for each compound. The solutions of AMG510 or the following reference compounds were prepared in the same way and added to the positive control wells. The cell plate was placed in a cell incubator and cultured for 120 h. For endpoint detection, the CellTiter-Glo reagent was melted, and the cell plate was moved to room temperature to equilibrate for 30 minutes, added with 100 µL of CellTiter-Glo to each well, and shaken on an orbital shaker for 5 minutes to fully lyse the cells. The plate was kept at room temperature for 20 minutes to stabilize the luminescence signal, and the luminescence value of each well was full wavelength scanned with a multi-functional microplate reader (Molecular Devices, Spectramax M3 microplate reader).
[Test samples] The compounds of Examples 1-39, and reference compound A
[Data Analysis] The following formula was used to calculate the cell inhibition rate under the action of each concentration of the compounds:
Inhibition rate %=[1−(LumDrug to be tested−LumCulture medium control)/(LumCell control−LUMCulture medium control)]×100%
IC50 values were calculated using GraphPad Prism 7.0 software, nonlinear Sigmoidal regression was used to fit the data to obtain a dose-response curve.
Background: In ATP-based viability assays light output follows the ATP content of the culture.

Like-named read-outs stand apart in the source and are kept apart here. A value given as a limit tells only on which side of the number the result lay.

Turning to `C=CC(=O)N1CCN(c2c(C#N)cnc3c(F)c(-c4ccc(F)c5sc(N)nc45)c(Cl)cc23)CC1` [Example 9, 4-(4-Acryloylpiperazin-1-yl)-7-(2-amino-7-fluorobenzo[d]thiazol-4-yl)-6-chloro-8-fluoroquinoline-3-carbonitrile], in data set [1] (different doses, FIG. 1), the “effect on body weight” value was “without significant side effects on body weight” and the tumor inhibition activity result was “excellent tumor inhibition activity”. For the same molecule, in data set [2], the AUC(0-t) stood at 1050 ng·h/mL, the clearance is 15.8 mL/min/kg and the half-life is 40.2 min. The inhibition at 1 µM in data set [3] (120 h) was 98.8%. Besides, the IC50 in data set [3] (120 h, read-out: IC50) was found to be 8.6 nM. Moreover, in data set [3] (read-out: IC50 value), the IC50 was below 20 nM.
Take `C=CC(=O)N1CCN(c2ncnc3c(F)c(-c4ccc(F)c5sc(N)nc45)c(Cl)cc23)CC1` [Ref. Comp. A, reference compound]: in data set [2], the AUC(0-t) is 623 ng·h/mL, the clearance amounted to 27.1 mL/min/kg and the half-life is 60 min. In addition, the inhibition at 1 µM in data set [3] (120 h) is 96.9%. For the same molecule, the IC50 in data set [3] (120 h, read-out: IC50) was found to be 11 nM.
For the molecule `C=CC(=O)N1CCN(c2nc(=O)n(-c3c(C)ccnc3C(C)C)c3nc(-c4c(O)cccc4F)c(F)cc23)[C@@H](C)C1` (atropisomer, axis not shown) [AMG510, reference compound], in data set [1], the “TGI(%)” value turned out to be 66% and the “Tumor volume (mm^3) (day 14)” value was found to be 525.1 mm^3. Also, in data set [2], the AUC(0-t) stood at 231 ng·h/mL, the clearance came out at 71.8 mL/min/kg and the half-life is 29.4 min.
Regarding `C=CC(=O)N1CCN(c2c(C#N)cnc3c(F)c(-c4ccc(F)c5sc(N)nc45)c(Cl)cc23)C[C@H]1C` [Example 8, 4-((R)-4-acryloyl-3-methylpiperazin-1-yl)-7-(2-amino-7-fluorobenzo[d]thiazol-4-yl)-6-chloro-8-fluoroquinoline-3-carbonitrile], in data set [1], the “TGI(%)” value was 67% and the “Tumor volume (mm^3) (day 14)” value was determined as 519.2 mm^3. Further, the inhibition at 1 µM in data set [3] (120 h) is 94%. The IC50 in data set [3] (120 h, read-out: IC50) was found to be 18 nM. For the same molecule, the IC50 in data set [3] (read-out: IC50 value) is below 20 nM.

In general, AUC(0-t) refers to the area under the concentration-time curve up to a stated or last time point. As usually defined, the clearance is the rate of elimination divided by the concentration. What is called half-life is the time needed for the level to fall by half in the phase considered. A word on the inhibition: it is the percentage by which the read-out fell short of the control. For orientation: IC50 means the concentration needed to halve the response being measured.
